The term IC50 denotes the concentration needed to halve the response being measured. By viability, T/C is commonly meant the ratio of treated to control.

The test system of this assay is 648629-189-R-J1-PDC spheroids with HUVEC/MSC, viability. Nature of the assay: Anticancer human tumor 648629-189-R-J1-PDC patient-derived bladder carcinoma cell line growth inhibition [PI3K]. The conditions noted are these: for viability, T/C: stronger effect = lower value. In short, it runs like this:
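Agents were dosed from a top concentration near clinical Cmax (otherwise 10 microM) in half-log decrements, alone or combined with PI3K inhibitors. The spheroids contain tumor cells plus endothelial (HUVEC) and MSC stroma; viability is measured.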

Values joined by “and” are separate entries in the source; they are usually repeats but may differ in a detail not shown here. Equal entries are not always repeated.
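Further: spheroids exposed to agents for seven days before reading.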
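Wherever viability, T/C is given: percent of vehicle control luminescence where 100% = DMSO treated spheroids.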

On to `Cn1nccc1Nc1nccc(-c2ccn(C(CO)c3ccc(Cl)c(F)c3)c(=O)c2)n1` (stereo not drawn) + CC(Nc1ncnc2nc[nH]c12)c1cc2cccc(Cl)c2c(=O)n1-c1ccccc1, for which the IC50 runs as follows: (curve of first compound, second compound 0.0316 µM) over 10 µM; (curve of first compound, second compound 0.1 µM) over 10 µM; (curve of first compound, second compound 0.316 µM) over 10 µM; (curve of first compound, second compound 1 µM) over 10 µM; (curve of first compound, second compound 3.16 µM) over 10 µM; (curve of first compound, second compound 10 µM) over 10 µM. Moreover, the viability, T/C (second compound 0.0316 µM, first compound 0.0316 µM) is 104%; the viability, T/C (second compound 0.0316 µM, first compound 0.1 µM) was 95.8%; the viability, T/C (second compound 0.0316 µM, first compound 0.316 µM) was 101%; the viability, T/C (second compound 0.0316 µM, first compound 1 µM) is 110%; the viability, T/C (second compound 0.0316 µM, first compound 3.16 µM) was 94%; the viability, T/C (second compound 0.0316 µM, first compound 10 µM) is 86.5%. For the same compound, the viability, T/C is 101% (second compound 0.1 µM, first compound 0.0316 µM); 88.9% (second compound 0.1 µM, first compound 0.1 µM); 102% (second compound 0.1 µM, first compound 0.316 µM); 105% (second compound 0.1 µM, first compound 1 µM); 100% (second compound 0.1 µM, first compound 3.16 µM); 88.4% (second compound 0.1 µM, first compound 10 µM). Further, the viability, T/C runs as follows: (second compound 0.316 µM, first compound 0.0316 µM) 116%; (second compound 0.316 µM, first compound 0.1 µM) 96.2%; (second compound 0.316 µM, first compound 0.316 µM) 96.8%; (second compound 0.316 µM, first compound 1 µM) 88.7%; (second compound 0.316 µM, first compound 3.16 µM) 101%; (second compound 0.316 µM, first compound 10 µM) 80.4%. Also, the viability, T/C is, setting by setting: (second compound 1 µM, first compound 0.0316 µM) 104%; (second compound 1 µM, first compound 0.1 µM) 93.9%; (second compound 1 µM, first compound 0.316 µM) 101%; (second compound 1 µM, first compound 1 µM) 105%; (second compound 1 µM, first compound 3.16 µM) 102%; (second compound 1 µM, first compound 10 µM) 79.3%. Besides, the viability, T/C (second compound 3.16 µM, first compound 0.0316 µM) is 88.5%; the viability, T/C (second compound 3.16 µM, first compound 0.1 µM) is 103%; the viability, T/C (second compound 3.16 µM, first compound 0.316 µM) is 100%; the viability, T/C (second compound 3.16 µM, first compound 1 µM) is 100%; the viability, T/C (second compound 3.16 µM, first compound 3.16 µM) is 93%; the viability, T/C (second compound 3.16 µM, first compound 10 µM) was 73.6%. For the same compound, the viability, T/C was 86.5% (second compound 10 µM, first compound 0.0316 µM); 80.6% (second compound 10 µM, first compound 0.1 µM); 79.9% (second compound 10 µM, first compound 0.316 µM); 90.8% (second compound 10 µM, first compound 1 µM); 97.7% (second compound 10 µM, first compound 3.16 µM); 78.5% (second compound 10 µM, first compound 10 µM).

On to `C#Cc1c(F)ccc2cc(O)cc(-c3ncc4c(N5CC6CCC(C5)N6)nc(OCC56CCCN5CC(F)C6)nc4c3F)c12` (stereo not drawn), for which the viability, T/C by setting is: (compound 0.0316 µM) 105% [middle of 4 runs]; (compound 0.316 µM) 111% and 104% (2×) and 105%; (compound 1 µM) 104% [middle of 4 runs]; (compound 3.16 µM) 107% [middle of 4 runs]; (compound 10 µM) 108% and 105% (2×) and 101%. Also, the IC50 (curve of compound) is over 10 µM.

(Values after PubChem BioAssay AID1963974 (Molecular Pharmacology Branch, DTP, NCI, 2024).)
